Molecules are shown by their SMILES.

What is called melting point is the temperature of the solid-liquid transition.

As to `CCOc1nn(-c2ccccn2)cc1CCCOc1cc(CCC(=O)O)n(-c2ccccc2)n1`, the melting point lay in the range of 156 to 157 °C.

`CCC(C)C(C(=O)O)n1sc2ccccc2c1=O` (stereo unspecified) displayed a melting point of 50 to 52 °C.

For the compound `COC(=O)c1cc(Br)ccc1Cl`, the melting point is 43 to 44 °C.

Take `CC(C)(C)N(NC(=O)c1ccccc1)C(=O)c1cccnc1`: the melting point was in the range of 60 to 63 °C.

Consider `CCc1n[nH]c(CC)c1Cc1cc(C#N)cc(C#N)c1`, for which the melting point was 141 to 143 °C.

With `OCc1cn(Cc2ccc(OCc3csc(-c4ccccc4)n3)cc2)nc1-c1cccs1`, the melting point lay within 147 to 148 °C.

`O=C(Nc1ccc(Oc2c(Cl)cc(C(F)(F)F)c(Cl)c2Cl)cc1Cl)Nc1nonc1-c1ccccc1` returned a melting point of 209 °C.

With `Cc1ccc(C)n1C(C)c1nccc(I)c1F` (stereo unspecified), the melting point lay in the range of 156 to 158 °C.

Regarding `Cc1ccccc1OC(=O)N1CCCC1=O`, the melting point was in the range of 85 to 87 °C.

As to `CCOC(=O)c1ccc(NCCOc2ccc(Br)c3ccccc23)cc1`, the melting point lay within 126 to 127 °C.

The compound `CC(=O)NC(=O)C(=O)C(C)(C)C` registered a melting point of 82 to 84 °C.

With `NCC1Cc2cc(F)cc(-c3cc(Cl)ccc3Cl)c2O1` (stereo unspecified), the melting point fell in the range of 165 to 166 °C.

As for `C[C@@H](Cc1c2n(c3ccc(OC4CC4)cc13)CCC2)NC(=O)OC(C)(C)C`, the melting point was 83 to 84 °C.

In turn, `O=c1[nH]c2ncc(-c3cn[nH]c3)nc2n1CC1CCCCC1` had a melting point of 246 to 248 °C.

For the compound `CC1(C)OC(=O)Nc2c(F)cc(-c3ccc(F)c(Cl)c3)cc21`, the melting point fell in the range of 246 to 248 °C.

In the case of `COc1cc(OC)c(-c2cc3ccccc3s2)cc1C=O`, the melting point lay in the range of 134 to 136 °C.

In turn, `CC(=O)O[C@H]1[C@H]([C@H](Cc2ccccc2)NC(=O)OCc2ccccc2)OC(=O)N[C@H]1Cc1ccccc1` returned a melting point of 140 to 142 °C.

`N#Cc1cnc2ccsc2c1Sc1ccc(Cl)cc1Cl` displayed a melting point of 126 to 128 °C.

In the case of `CC(Oc1ncn(-c2ccc(Cl)cc2)n1)C(=O)O` (stereo unspecified), the melting point was in the range of 196 to 198 °C.

`C=CCOc1ccc(F)cc1-c1ccccc1-c1ccccc1` had a melting point of 48 to 49 °C.

In turn, `CCNCCC(=O)Nc1ccc2c(c1)C(=O)c1cc(NC(=O)CCNCC)ccc1C2=O` yielded a melting point of 181 °C.

In turn, `Nc1cc(-c2ccoc2)ccc1Nc1cccc(C(=O)O)c1` displayed a melting point of 211 to 212 °C.

In the case of `Cc1ccc(S(=O)(=O)N2[C@@H](C#N)CC[C@H]2c2ccc(F)cc2)cc1` (racemic), the melting point stood at 128 °C.

On to `NC(=O)C(=O)c1cccc(Cl)c1Cl`, for which the melting point fell in the range of 213 to 214 °C.

The compound `NC(=O)Nc1ccc2c(c1)N1CCCN=C1S2` gave a melting point of 246 °C.

In turn, `CCOc1ccc(-c2c(C(=O)OC)c(C(=O)OC)c(O)c3cc(OC)c(OC)c(OC)c23)cc1OC` had a melting point of 159 °C.

Turning to `CC(C)SCCOc1ccc(COc2cnn(C(C)(C)C)c(=O)c2Cl)cc1`, the melting point is 82 to 84.5 °C.

Consider `Cc1cc(N2CC=C(C(=O)OC(C)C)CC2)c2cccc(Br)c2n1`, for which the melting point is 130 to 131 °C.

For `Nc1cc(Cl)nc(SC/C=C/C(=O)N2CCCCC2)n1`, the melting point fell in the range of 159 to 163 °C.

`COc1cc2c(cc1Br)-c1c(-c3cccs3)c3c(n1CC2)C(=O)N(C(C)(C)C)CCC3` displayed a melting point of 232 to 233 °C.

For `O=C(Cc1cccc(Br)c1)Nc1cccc(C(=O)NO)c1`, the melting point lay within 184 to 186 °C.

Consider `C=CCNC(=O)N1CC(OCc2cccc(C(F)(F)F)c2)C1`, for which the melting point came out at 108 °C.

`CC(C)NC(=O)N1CCc2[nH]cnc2C1c1ccncc1` (stereo unspecified) came in with a melting point of 212 °C.

`COC(=O)c1ccc2c(C(C(=O)NS(=O)(=O)c3ccc(C)cc3OC)c3ccc4c(c3)OCO4)cn(C)c2c1` (stereo unspecified): the melting point was 184 to 185 °C.

With `O=S(=O)(c1cc(SC(F)(F)F)[nH]c1-c1ccc(Cl)cc1)C(F)(F)F`, the melting point is 118 to 122 °C.

In turn, `COC(=O)c1nc(-c2ccc(Cl)c(OC)c2F)nc(N)c1Br` returned a melting point of 173 to 175 °C.

The record behind these values is a melting point compilation (Tetko et al.; mined from patent text by program, amines drawn as free bases though some values may be those of a salt).
